System: T-47D
Assay: Caspase cascade activation assay (N-(Ac-DEVD)-N'-ethoxycarbonyl-R110 fluorogenic substrate) in T-47D cells
Format: cell-based, Human
Conditions: 24 h incubation; for Caspase Activity Ratio: ratio of net RFU (T=3 h) to that of control samples, 0.16 to 10 μM final; for EC50: Homo sapiens, T47D, sigmoidal dose-response calculation, read-out: Caspase Potency EC50
Method: Human breast cancer cell lines T-47D was grown according to media component mixtures designated by American Type Culture Collection+10% FCS (mvitrogen Corporation), in a 5% CO2-95% humidity incubator at 37° C. T-47D and ZR-75-1 cells were maintained at a cell density between 30 and 80% confluency and for HL-60 at a cell density of 0.1 to 0.6×10^6 cells/mL. Cells were harvested at 600×g and resuspended at 0.65×10^6 cells/mL into appropriate media+10% FCS. An aliquot of 45 μL of cells was added to a well of a 96-well microtiter plate containing 5 μL of a 10% DMSO in RPMI-1640 media solution containing 1.6 to 100 μM of 1,3-dimethyl-N-(4-methoxyphenyl)-1H-pyrazolo[3,4-b]quinolin-4-amine or other test compound (0.16 to 10 μM final). An aliquot of 45 μL of cells was added to a well of a 96-well microtiter plate containing 5 μL of a 10% DMSO in RPMI-1640 media solution without test compound as the control sample. The samples were mixed by agitation and then incubated at 37° C. for 24 h in a 5% CO2-95% humidity incubator. After incubation, the samples were removed from the incubator and 50 μL of a solution containing 20 μM of N-(Ac-DEVD)-N′-ethoxycarbonyl-R110 fluorogenic substrate (SEQ ID NO:1) (Cytovia, Inc.; U.S. Pat. No. 6,335,429), 20% sucrose (Sigma), 20 mM DTT (Sigma), 200 mM NaCl (Sigma), 40 mM Na PIPES buffer pH 7.2 (Sigma), and 500 μg/mL lysolecithin (Calbiochem) was added. The samples were mixed by agitation and incubated at room temperature. Using a fluorescent plate reader (Model 1420 Wallac Instruments), an initial reading (T=0) was made about 1-2 min after addition of the substrate solution, employing excitation at 485 nm and emission at 530 nm, to determine the background fluorescence of the control sample. After about 3 h of incubation, the samples were read for fluorescence as above (T=3 h).
The Relative Fluorescence Unit values (RFU) were used to calculate the sample readings as follows: RFU(T=3h)−Control RFU(T=0)=Net RFU(T=3h)
The activity of caspase cascade activation was determined by the ratio of the net RFU value for 1,3-dimethyl-N-(4-methoxyphenyl)-1H-pyrazolo[3,4-b]quinolin-4-amine to that of control samples. The EC50 (nM) was determined by a sigmoidal dose-response calculation (Prism 2.0, GraphPad Software Inc.).

EC50 [µM] | Structure (SMILES) | Caspase Activity Ratio
> 10 | CC(=O)c1cccc(Nc2c3ccccc3nc3c2c(C)nn3C)c1 [Example 5, N-(3-Acetylphenyl)-1,3-dimethyl-1H-pyrazolo[3,4-b]quinolin-4-amine] | 1.0
> 10 | Cc1nn(C)c2nc3ccccc3c(Nc3ccc(C(N)=O)cc3)c12 [Example 6, N-(4-Carbamoylphenyl)-1,3-dimethyl-1H-pyrazolo[3,4-b]quinolin-4-amine] | 1.0
> 10 | COc1ccc(Nc2c3ccccc3nc3c2c(C)nn3C)cn1 [Example 7, 1,3-Dimethyl-N-(6-methoxypyridin-3-yl)-1H-pyrazolo[3,4-b]quinolin-4-amine] | 1.0
5.83 | COc1cccc(Nc2c3ccccc3nc3c2c(C)nn3C)c1 [Example 8, 1,3-Dimethyl-N-(3-methoxyphenyl)-1H-pyrazolo[3,4-b]quinolin-4-amine] | 3.9
4.23 | COc1ccc(Sc2c3ccccc3nc3c2c(C)nn3C)cc1 [Example 12, 4-(4-Methoxyphenylthio)-1,3-dimethyl-1H-pyrazolo[3,4-b]quinoline] | 9.3
4.32 | CC(=O)c1ccc(Oc2c3ccccc3nc3c2c(C)nn3C)cc1 [Example 13, 4-(4-Acetylphenoxy)-1,3-dimethyl-1H-pyrazolo[3,4-b]quinoline] | 7.5
> 10 | CC(C)C(=O)c1cccc(N(C)c2c3c(nc4ccccc24)CCC3)c1 [Example 16, N-(3-Isobutyrylphenyl)-N-methyl-2,3-dihydro-1H-cyclopenta[b]quinolin-9-amine] | 1.1
5.12 | CCOC(=O)c1ccc(N(C)c2c3c(nc4ccccc24)CCC3)cc1 [Example 17, N-(4-(Ethoxycarbonyl)phenyl)-N-methyl-2,3-dihydro-1H-cyclopenta[b]quinolin-9-amine] | 9.3
0.841 | CC(=O)c1ccc(Nc2c3ccccc3nc3c2cnn3C)cc1 [Example 18, N-(4-Acetylphenyl)-1-methyl-1H-pyrazolo[3,4-b]quinolin-4-amine] | 8.5
> 10 | CC(=O)c1ccc(Nc2c3ccccc3nc3c2c(C(C)C)nn3C)cc1 [Example 21, N-(4-Acetylphenyl)-1-methyl-3-isopropyl-1H-pyrazolo[3,4-b]quinolin-4-amine] | 1.1
> 10 | CCc1ccc(Nc2c3ccccc3nc3c2c(C)nn3C)cc1 [Example 22, N-(4-Ethylphenyl)-1,3-dimethyl-1H-pyrazolo[3,4-b]quinolin-4-amine] | 1.1
> 10 | CC(=O)Nc1ccc(Nc2c3ccccc3nc3c2c(C)nn3C)cc1 [Example 32, N-(4-Acetamidophenyl)-1,3-dimethyl-1H-pyrazolo[3,4-b]quinolin-4-amine] | 1.1
> 10 | Cc1nn(C)c2nc3ccccc3c(Nc3ccc(S(C)(=O)=O)cc3)c12 [Example 34, 1,3-Dimethyl-N-(4-methylsulfonylphenyl)-1H-pyrazolo[3,4-b]quinolin-4-amine] | 1.1
> 10 | Cc1nn(C)c2nc3ccccc3c(Nc3ccc([S+](C)[O-])cc3)c12 (centres unmarked) [Example 39, 1,3-Dimethyl-N-(4-methylsulfinylphenyl)-1H-pyrazolo[3,4-b]quinolin-4-amine] | 1.1
0.248 | Cc1nn(C)c2nc3ccccc3c(Nc3ccc(C(=O)C(C)C)cc3)c12 [Example 44, N-(4-Isobutyrylphenyl)-1,3-dimethyl-1H-pyrazolo[3,4-b]quinolin-4-amine] | 4.3
> 10 | Cc1nn(C)c2nc3ccccc3c(Nc3ccc(N)cc3)c12.Cl [Example 45, N-(4-Aminophenyl)-1,3-dimethyl-1H-pyrazolo[3,4-b]quinolin-4-amine hydrochloride] | 1.1

Reference: US20070253957A1, “Substituted N-Aryl-1H-Pyrazolo[3,4-B]Quinolin-4-Amines and Analogs as Activators of Caspases and Inducers of Apoptosis” (Cytovia, Inc., priority 2004, published 2007)
